According to patent US20250296960A1, “PEPTIDE COMPOSITIONS AND METHODS OF USE THEREOF” (priority 2022, published 2025):
Square brackets hold non-standard residues; d marks the D form. Peptide text beside a SMILES is read from it. * marks the point of attachment. X1 = O=C(O)CCCCCCCCCCCCCCCCC(=O)N[C@@H](CCC(=O)NCCOCCOCC(=O)NCCOCCOCC(=O)NCCN1C(=O)CC(*)C1=O)C(=O)O; Aib = CC(C)(N)C(=O)O

Experiments:
[1] = Body weight loss in normal C57BL/6 mice, subcutaneous dosing; type: in vivo; conditions: normal mice; 20 nmol/kg QD; after 48 or 72 hours
Procedure: To confirm the therapeutic effect of the peptide in vivo, polypeptides were administered to mice to measure changes in body weight. […] The peptides were delivered at 0.02% polysorbate 80 (PS80) in PBS and dosing volume was 10 mL/kg. Body weight was monitored 6 h, QD.
To confirm the therapeutic effect of the peptide in obesity, diabetes, or NASH, polypeptides were administered to mice to measure changes in food intake, blood glucose and body weight. […] In addition, a NASH animal model was prepared by feeding a high fat, high fructose, high cholesterol diet to normal C57BL/6 mice (approximately 6 weeks old) for approximately 21 weeks, and increasing the body weights of the mice to approximately 50 g on average. Thereafter, polypeptides were administered by subcutaneous injection at dose of 20 nmol/kg once every other day for 2 weeks. Body weight and food intake were measured once every other day given points of time. After 2 weeks of treatment period, mice were sacrificed, then liver weight, hepatic triglyceride, and NASH related biomarkers were measured.
DD01 administered at 40 nmol/kg, s.c. Q2D as positive control was delivered at 0.02% PS80 in PBS and dosing volume was 10 mL/kg. Body weight was monitored QD for 4 days.
The peptides were delivered at 0.02% PS80 in PBS and dosing volume was 10 mL/kg. Food intake, blood glucose, and body weight changes were monitored QD.

human GCGR = molecular target: T1, human GCGR (Homo sapiens, UniProt P47871); test: cAMP assay (HitHunter cAMP) in GCGR-expressing CHO-K1 cells (GCGR+ cells); type: cell-based
T1 construct: host or cells: CHO-K1
T1 sequence (P47871 26-477): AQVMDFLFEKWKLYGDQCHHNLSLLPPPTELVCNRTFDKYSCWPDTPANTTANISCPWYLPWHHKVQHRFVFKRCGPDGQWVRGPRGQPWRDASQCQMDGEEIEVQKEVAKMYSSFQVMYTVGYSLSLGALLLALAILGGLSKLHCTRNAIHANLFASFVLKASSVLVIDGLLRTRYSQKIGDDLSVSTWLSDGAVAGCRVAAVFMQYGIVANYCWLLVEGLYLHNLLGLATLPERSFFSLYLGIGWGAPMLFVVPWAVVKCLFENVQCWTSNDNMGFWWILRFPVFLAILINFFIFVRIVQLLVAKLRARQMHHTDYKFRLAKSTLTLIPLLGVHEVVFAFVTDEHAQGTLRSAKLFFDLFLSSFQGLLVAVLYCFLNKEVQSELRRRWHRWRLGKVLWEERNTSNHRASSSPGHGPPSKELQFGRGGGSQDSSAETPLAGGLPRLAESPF
Procedure: (§1) The cells were seeded in a 96-well plate at 7×10^3 cells/well using cell plate reagent and incubated the cells overnight at 37° C. and 5% CO2. To perform the cAMP detection assay, cell plating reagent were replaced with the cAMP Assay buffer. Each of the wells was then treated with the diluted peptide and incubated for 30 minutes under conditions of a temperature of 37° C. in a CO2 incubator.
(§2) After the incubation, cAMP Antibody reagent and Working cAMP detection solution to all wells. Incubate the plate for 1 hour at Room temperature in the dark. Then, cAMP Solution A was added and incubated for 3 hours at room temperature in the dark. Subsequently, the luminescence was measured using the microplate reader device.

human GLP-1R = molecular target: T2, human GLP-1R (Homo sapiens, UniProt P43220); test: cAMP assay (HitHunter cAMP) in GLP-1R-expressing CHO-K1 cells (GLP-1R+ cells); type: cell-based
T2 construct: host or cells: CHO-K1
T2 sequence (P43220 24-463): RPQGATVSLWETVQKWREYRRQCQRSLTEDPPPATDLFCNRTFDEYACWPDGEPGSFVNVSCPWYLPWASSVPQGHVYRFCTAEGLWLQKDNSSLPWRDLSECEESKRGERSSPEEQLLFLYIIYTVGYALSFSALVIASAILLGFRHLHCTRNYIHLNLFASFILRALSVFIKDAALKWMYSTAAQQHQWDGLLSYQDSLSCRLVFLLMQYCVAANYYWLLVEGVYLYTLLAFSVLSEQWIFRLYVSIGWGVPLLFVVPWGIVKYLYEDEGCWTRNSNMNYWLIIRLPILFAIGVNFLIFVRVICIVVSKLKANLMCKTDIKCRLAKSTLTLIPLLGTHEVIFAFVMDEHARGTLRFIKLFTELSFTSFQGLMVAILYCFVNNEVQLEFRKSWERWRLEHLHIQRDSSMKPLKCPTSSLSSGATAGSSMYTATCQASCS
Procedure: as §1, §2

human GIPR = molecular target: T3, human GIPR (Homo sapiens, UniProt P48546); test: cAMP assay (HitHunter cAMP) in GIPR-expressing CHO-K1 cells (GIPR+ cells); type: cell-based
T3 construct: host or cells: CHO-K1
T3 sequence (P48546 22-466): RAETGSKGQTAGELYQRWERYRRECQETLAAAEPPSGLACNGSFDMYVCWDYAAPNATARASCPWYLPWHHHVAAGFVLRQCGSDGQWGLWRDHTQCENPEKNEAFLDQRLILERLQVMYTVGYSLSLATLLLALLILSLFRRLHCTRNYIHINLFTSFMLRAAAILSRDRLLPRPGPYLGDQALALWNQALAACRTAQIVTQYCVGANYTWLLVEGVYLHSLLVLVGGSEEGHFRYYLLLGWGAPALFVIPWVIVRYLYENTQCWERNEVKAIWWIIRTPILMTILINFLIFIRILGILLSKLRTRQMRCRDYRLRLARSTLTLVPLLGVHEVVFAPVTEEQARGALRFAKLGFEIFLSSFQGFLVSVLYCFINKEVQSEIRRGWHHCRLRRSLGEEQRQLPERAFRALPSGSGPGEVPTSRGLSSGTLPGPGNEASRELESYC
Procedure: as §1, §2

[2] = Table 19, normalised to activity at GLP-1R
[3] = Table 24, ratio of EC50 of native ligand over peptide

For CSCC[C@H](NC(=O)[C@H](Cc1ccc(O)cc1)NC(=O)[C@H](CC(=O)O)NC(=O)[C@H](CC(C)C)NC(=O)[C@H](CC(C)C)NC(=O)[C@H](CCCCN)NC(=O)[C@H](CO)NC(=O)[C@H](Cc1ccc(O)cc1)NC(=O)[C@H](CC(=O)O)NC(=O)[C@H](CO)NC(=O)[C@@H](NC(=O)[C@H](Cc1ccccc1)NC(=O)[C@@H](NC(=O)CNC(=O)[C@H](CCC(N)=O)NC(=O)C(C)(C)NC(=O)[C@@H](N)Cc1c[nH]cn1)[C@@H](C)O)[C@@H](C)O)C(=O)N[C@@H](CCSC)C(=O)N[C@@H](CCC(N)=O)C(=O)N[C@@H](CCCNC(=N)N)C(=O)N[C@@H](CC(=O)O)C(=O)N[C@@H](Cc1ccccc1)C(=O)N[C@H](C(=O)N[C@@H](CCC(N)=O)C(=O)N[C@@H](Cc1c[nH]c2ccccc12)C(=O)N[C@@H](CC(C)C)C(=O)N[C@@H](CC(C)C)C(=O)N[C@@H](CCC(=O)O)C(=O)NCC(=O)NCC(=O)N1CCC[C@H]1C(=O)N[C@@H](CO)C(=O)N[C@@H](CO)C(=O)NCC(=O)N[C@@H](C)C(=O)N1CCC[C@H]1C(=O)N1CCC[C@H]1C(=O)N1CCC[C@H]1C(=O)N[C@@H](CO)C(=O)N[C@@H](CSC1CC(=O)N(CCNC(=O)COCCOCCNC(=O)COCCOCCNC(=O)CC[C@H](NC(=O)CCCCCCCCCCCCCCCCC(=O)O)C(=O)O)C1=O)C(N)=O)C(C)C (stereo partly shown) [5-5A] (H-H[Aib]QGTFTSDYSKLLDYMMQRDFVQWLLEGGPSSGAPPPSC(X1)-NH2; N-terminus assumed), the “Weight loss (%)” value [1] was 10.6 ± 1.0%, the “Activity relative to STD peptide (%), GCGR” value (human GCGR; Table 18) was 1% and the “Activity relative to GLP-1 (%), GCGR” value (human GCGR; [2]) was 0%. For the same compound, the “Relative % to native ligand, GCGR” value (human GCGR; [3]) was 1%, the “Ratio vs. GLP-1R, GCGR” value (human GCGR; Table 25) was 0 and the “Relative % to non-lipidated peptide, GCGR” value (human GCGR; Table 26) was 1%. The “Activity relative to STD peptide (%), GLP-1R” value (human GLP-1R; Table 18) was 673%, the “Activity relative to GLP-1 (%), GLP-1R” value (human GLP-1R; [2]) was 100% and the “Relative % to native ligand, GLP-1R” value (human GLP-1R; [3]) was 673%. The “Ratio vs. GLP-1R, GLP-1R” value (human GLP-1R; Table 25) was 100, the “Relative % to non-lipidated peptide, GLP-1R” value (human GLP-1R; Table 26) was 40% and the “Activity relative to STD peptide (%), GIPR” value (human GIPR; Table 18) was 14%. The “Activity relative to GLP-1 (%), GIPR” value (human GIPR; [2]) was 2%, the “Relative % to native ligand, GIPR” value (human GIPR; [3]) was 14% and the “Ratio vs. GLP-1R, GIPR” value (human GIPR; Table 25) was 2. For the same compound, the “Relative % to non-lipidated peptide, GIPR” value (human GIPR; Table 26) was 3%.
